Here are results for one molecule from paper PMC3101337, “Interactions of the Melanocortin-4 Receptor with the Peptide Agonist NDP-MSH” (Journal of Molecular Biology, 2010).

This assay concerns the target T1, hMC4R mutant L106C (Homo sapiens, UniProt P32245, L106C).
T1 construct: expressed in transfected cells; host or cells: HEK293 CRE-Luciferase cells; mutant made by QuikChange on pcDNA3-MC4R
Description: CRE-Luciferase cAMP activity assay, L106C MC4R. The settings on record: L106C MC4R in HEK293 CRE-Luciferase cells, mean ± SEM, N = 3, NA = no activity, read-out: Ligand pEC50 (converted). The class given is cell-based.

SMILES strings stand for the structures.

T1 sequence (P32245 whole entry L106C): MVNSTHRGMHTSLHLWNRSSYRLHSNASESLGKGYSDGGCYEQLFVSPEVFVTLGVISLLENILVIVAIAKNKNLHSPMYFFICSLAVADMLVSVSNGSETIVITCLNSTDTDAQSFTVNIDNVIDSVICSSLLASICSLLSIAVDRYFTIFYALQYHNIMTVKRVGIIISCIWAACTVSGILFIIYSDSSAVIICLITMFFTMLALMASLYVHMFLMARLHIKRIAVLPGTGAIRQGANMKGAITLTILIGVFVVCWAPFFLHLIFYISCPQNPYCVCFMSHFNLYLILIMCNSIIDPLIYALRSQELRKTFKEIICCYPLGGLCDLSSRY
Description: Twenty-four hours posttransfection, HEK293 CRE-Luciferase cells were plated onto 96-well black-wall, clear-bottom, poly-D-lysine-coated microplates (Corning Costar) at a density of 50,000 cells/well and cultured for a further 12–18 h. […] Microtiter plates were incubated for 4 h at 37 °C, after which Luclite® reagent (Perkin-Elmer) was added to each well. The plates were sealed and subjected to dark adaptation for 5 min at room temperature. Luciferase activity was determined by scintillation counting using a TOPCount scintillation counter (Perkin-Elmer).
All measurements, except where stated, were carried out in triplicate in three independent experiments. The values quoted and depicted graphically are the means of independent determinations with the standard error of the mean. […] In a similar fashion, EC50 values were calculated from the fit of sigmoidal concentration–response curves (three-parameter fit). pIC50 refers to − log IC50, and pEC50 refers to − log EC50.

With `CCCC[C@H](NC(=O)[C@H](CO)NC(=O)[C@H](Cc1ccc(O)cc1)NC(=O)[C@H](CO)NC(=O)CCCC[C@@H]1SC[C@@H]2NC(=O)N[C@@H]21)C(=O)N[C@@H](CCC(=O)O)C(=O)N[C@@H](Cc1c[nH]cn1)C(=O)N[C@H](Cc1ccccc1)C(=O)N[C@@H](CS)C(=O)N[C@@H](Cc1c[nH]c2ccccc12)C(=O)NCC(=O)N[C@@H](CCCCN)C(=O)N1CCC[C@H]1C(=O)N[C@H](C(N)=O)C(C)C` [Peptide 8], the EC50 is 6.46 nM.
